Source: ChEMBL document CHEMBL1201862, “PubChem BioAssay data set” (2004)
Counter-ions that a name gives are not always drawn.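 Five compound concentrations were applied to cells in 96-well plates for 48 hours; endpoints were derived by simple linear interpolation of the resulting dose-response curve. GI50 = concentration required for 50% inhibition of growth.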 Active and inactive are the calls of the source. Rule as the data show it: active = GI50 up to about 1.1 µM and inactive = higher.

Experiments:
Test in all cases: DTP human tumour cell line panel, 48 h
KM12 = test system: KM12
A549 = test system: A549
SK-MEL-2 = test system: SK-MEL-2
CCRF-CEM = test system: CCRF-CEM
PC-3 = test system: PC-3
COLO 205 = test system: COLO 205
RXF 393 = test system: RXF 393
DU-145 = test system: DU-145
LOX IMVI = test system: LOX IMVI
MDA-MB-231 = test system: MDA-MB-231
SW-620 = test system: SW-620
U-251 = test system: U-251
MDA-N = test system: MDA-N
SNB-19 = test system: SNB-19
OVCAR-8 = test system: OVCAR-8
MOLT-4 = test system: MOLT-4
OVCAR-4 = test system: OVCAR-4
T47D = test system: T47D
UACC-257 = test system: UACC-257
OVCAR-5 = test system: OVCAR-5
ACHN = test system: ACHN
IGROV-1 = test system: IGROV-1
HOP-92 = test system: HOP-92
CAKI-1 = test system: CAKI-1
NCI/ADR-RES = test system: NCI/ADR-RES
Malme-3M = test system: Malme-3M
SK-MEL-5 = test system: SK-MEL-5
SF-268 = test system: SF-268
SN12C = test system: SN12C
SK-MEL-28 = test system: SK-MEL-28
SR = test system: SR
SNB-75 = test system: SNB-75
786-0 = test system: 786-0
MDA-MB-435 = test system: MDA-MB-435
EKVX = test system: EKVX
A498 = test system: A498
OVCAR-3 = test system: OVCAR-3
NCI-H23 = test system: NCI-H23
MCF7 = test system: MCF7
NCI-H522 = test system: NCI-H522
M14 = test system: M14
HCT-116 = test system: HCT-116
HOP-62 = test system: HOP-62
SF-295 = test system: SF-295
UO-31 = test system: UO-31
UACC-62 = test system: UACC-62
HCC 2998 = test system: HCC 2998
K562 = test system: K562
HCT-15 = test system: HCT-15
NCI-H226 = test system: NCI-H226
HT-29 = test system: HT-29
NCI-H460 = test system: NCI-H460
SK-OV-3 = test system: SK-OV-3
SF-539 = test system: SF-539

How did the GI50 (KM12) turn out when `CN(C)CCOC(=O)COc1ccc(Cl)cc1` [CENTROPHENOXINE HYDROCHLORIDE] was run?
Its GI50 is > 100 µM (inactive).

And the GI50 (A549)?
The GI50 was > 100 µM (inactive).

And the GI50 (SK-MEL-2)?
Its GI50 is > 100 µM (inactive).

What about the GI50 (CCRF-CEM) of the same compound?
The GI50 was > 100 µM (inactive).

And the GI50 (PC-3)?
Its GI50 is > 100 µM (inactive).

And the GI50 (COLO 205)?
Its GI50 is > 100 µM (inactive).

What about the GI50 (RXF 393) of the same compound?
Its GI50 is > 100 µM (inactive).

And the GI50 (DU-145)?
Its GI50 is > 100 µM (inactive).

And the GI50 (LOX IMVI)?
Its GI50 is > 100 µM (inactive).

And the GI50 (MDA-MB-231)?
The GI50 was > 100 µM (inactive).

What about the GI50 (SW-620) of the same compound?
Its GI50 is > 100 µM (inactive).

And the GI50 (U-251)?
The GI50 was > 100 µM (inactive).

And the GI50 (MDA-N)?
The GI50 was > 100 µM (inactive).

And the GI50 (SNB-19)?
Its GI50 is > 100 µM (inactive).

And the GI50 (OVCAR-8)?
Its GI50 is > 100 µM (inactive).

And the GI50 (MOLT-4)?
The GI50 was > 100 µM (inactive).

What about the GI50 (OVCAR-4) of the same compound?
The GI50 was > 100 µM (inactive).

And the GI50 (T47D)?
Its GI50 is > 100 µM (inactive).

What about the GI50 (UACC-257) of the same compound?
The GI50 was > 100 µM (inactive).

What about the GI50 (OVCAR-5) of the same compound?
Its GI50 is > 100 µM (inactive).

What about the GI50 (ACHN) of the same compound?
The GI50 was > 100 µM (inactive).

And the GI50 (IGROV-1)?
The GI50 was > 100 µM (inactive).

And the GI50 (HOP-92)?
The GI50 was > 100 µM (inactive).

And the GI50 (CAKI-1)?
The GI50 was > 100 µM (inactive).

And the GI50 (NCI/ADR-RES)?
The GI50 was > 100 µM (inactive).

What about the GI50 (Malme-3M) of the same compound?
The GI50 was > 100 µM (inactive).

What about the GI50 (SK-MEL-5) of the same compound?
Its GI50 is > 100 µM (inactive).

What about the GI50 (SF-268) of the same compound?
The GI50 was > 100 µM (inactive).

What about the GI50 (SN12C) of the same compound?
The GI50 was > 100 µM (inactive).

And the GI50 (SK-MEL-28)?
The GI50 was > 100 µM (inactive).

What about the GI50 (SR) of the same compound?
Its GI50 is > 100 µM (inactive).

And the GI50 (SNB-75)?
The GI50 was 52.8 µM (inactive).

What about the GI50 (786-0) of the same compound?
Its GI50 is > 100 µM (inactive).

What about the GI50 (MDA-MB-435) of the same compound?
The GI50 was > 100 µM (inactive).

What about the GI50 (EKVX) of the same compound?
Its GI50 is > 100 µM (inactive).

And the GI50 (A498)?
Its GI50 is 98.6 µM (inactive).

What about the GI50 (OVCAR-3) of the same compound?
Its GI50 is > 100 µM (inactive).

What about the GI50 (NCI-H23) of the same compound?
Its GI50 is > 100 µM (inactive).

And the GI50 (MCF7)?
Its GI50 is 38.8 µM (inactive).

And the GI50 (NCI-H522)?
Its GI50 is > 100 µM (inactive).

And the GI50 (M14)?
Its GI50 is > 100 µM (inactive).

What about the GI50 (HCT-116) of the same compound?
The GI50 was > 100 µM (inactive).

And the GI50 (HOP-62)?
The GI50 was > 100 µM (inactive).

What about the GI50 (SF-295) of the same compound?
The GI50 was > 100 µM (inactive).

And the GI50 (UO-31)?
The GI50 was > 100 µM (inactive).

And the GI50 (UACC-62)?
Its GI50 is > 100 µM (inactive).

What about the GI50 (HCC 2998) of the same compound?
The GI50 was > 100 µM (inactive).

What about the GI50 (K562) of the same compound?
The GI50 was > 100 µM (inactive).

And the GI50 (HCT-15)?
The GI50 was greater than 100 µM.

And the GI50 (NCI-H226)?
The GI50 was > 100 µM (inactive).

And the GI50 (HT-29)?
Its GI50 is > 100 µM (inactive).

And the GI50 (NCI-H460)?
Its GI50 is > 100 µM (inactive).

And the GI50 (SK-OV-3)?
Its GI50 is > 100 µM (inactive).

And the GI50 (SF-539)?
The GI50 was > 100 µM (inactive).
